Data on one molecule can be found in US12005039B2, “Methods and compositions relating to lipokines for treating metabolic disorders” (Joslin Diabetes Center, Inc., priority 2018, dated 2024).

SMILES strings stand for the structures.

The subject of series [1] is 3T3-L1 cells. In words: 14C-palmitic acid uptake and oxidation in 3T3-L1 cells. The format is cell-based. As to conditions: 1.5 μM, 15 min, vs vehicle. How it is done: (§1) Cells were housed at 37° C., 95% humidity and 5% CO2. C2C12 myoblasts (ATCC; passages 4-7) were maintained in DMEM containing 10% FBS and 1% penicillin/streptomycin. Differentiation was induced by incubating the cells in DMEM containing 2% horse serum and 1% penicillin/streptomycin for 4 days. 3T3-LI adipocytes (ATCC; passages 4-7) were maintained in DMEM containing 10% FBS and 1% penicillin/streptomycin. Differentiation was induced by incubating the cells in DMEM containing […] and 1% penicillin/streptomycin with 400 ng/mL dexamethasone, 1 μg/mL insulin, and 115 μg/mL IBMX for days 0-2, 1 μg/mL insulin for days 2-4, and DMEM with 10% FBS and 1% penicillin/streptomycin only days 4-8.
(§2) mRNA levels of were measured by quantitative RT-PCR using primers (Table 4). Fatty acid uptake and oxidation into differentiated C2C12 muscle cells and 3T3L1 adipocytes measured using ^14C-labeled palmitic acid uptake and conversion of ^14C-labeled palmitic acid into CO2 as previously described (Townsend et al., 2013). Cells were treated with 1.5 μM 12,13-diHOME or methyl acetate vehicle for 15 min, similar to previous studies (Lynes et al., 2017). Oxygen consumption rates (OCR) were measured in starved (1 hour) C2C12 skeletal muscle cells treated with 1.5 μM 12,13-diHOME or methyl acetate vehicle for 15 min and OCR measured in 200 μM palmitate (Seahorse XF24) (Vernochet et al., 2012). […]

Series [2] deals with mitochondrial and fatty acid oxidation genes. In words: Expression of mitochondrial and fatty acid genes in tissues after acute injection (qRT-PCR). The settings on record: mice injected in vivo. The procedure: (§3) mRNA levels of were measured by quantitative RT-PCR using primers (Table 4). Fatty acid uptake and oxidation into differentiated C2C12 muscle cells and 3T3L1 adipocytes measured using ^14C-labeled palmitic acid uptake and conversion of ^14C-labeled palmitic acid into CO2 as previously described (Townsend et al., 2013). Cells were treated with 1.5 μM 12,13-diHOME or methyl acetate vehicle for 15 min, similar to previous studies (Lynes et al., 2017). Oxygen consumption rates (OCR) were measured in starved (1 hour) C2C12 skeletal muscle cells treated with 1.5 μM 12,13-diHOME or methyl acetate vehicle for 15 min and OCR measured in 200 μM palmitate (Seahorse XF24) (Vernochet et al., 2012).
To identify a mechanism for increased fat utilization with 12,13-diHOME in skeletal muscle, assays were performed to determine the effects of injecting mice with 12,13-diHOME in vivo on the expression of mitochondrial and fatty acid oxidation genes in tibialis anterior muscle. […] However, there was no effect of 12,13-diHOME on mitochondrial or fatty acid oxidation genes in scWAT, pgWAT, liver, or BAT (FIGS. 6D-6G). These findings were consistent with the data showing that 12,13-diHOME regulates fatty acid metabolism in skeletal muscle.

In series [3] the test system is differentiated C2C12 myotubes. Put plainly: 3H-2-deoxyglucose uptake in C2C12 cells. It counts as cell-based. The settings on record: 1.5 mM, 15 min, vs vehicle. The procedure: 2-deoxyglucose uptake in C2C12 cells was measured as previously described (Nedachi and Kanzaki, 2006). Briefly, differentiated C2C12 myotubes were serum starved for 3 h in DMEM before any treatment. Cells were incubated with 12,13-diHOME ([…]; 15 min) or insulin (100 nM; 15 min). After stimulation, cells were washed with buffer containing 140 mM NaCl, 20 mM Hepes-Na (pH 7.4), 5 mM KCl, 2.5 mM MgSO4, and 1.0 mM CaCl2. Glucose transport was determined by the addition of ^3H-2-deoxyglucose for glucose for 10 min on ice. Cells were washed with ice-cold saline solution and harvested in 0.05 N NaOH to determine net accumulation of [^3H]-2-deoxyglucose (Nedachi and Kanzaki, 2006).
(§4) Glucose is an important fuel source utilized during exercise. Accordingly, assays were performed to determine whether 12,13-diHOME increased glucose uptake in skeletal muscle. […] To confirm these findings, isolated mouse soleus and extensor digitorum longus (EDL) skeletal muscles were incubated with either vehicle or 12,13-diHOME for 1 hour.

Series [4] can be described thus: RER by CLAMS in exercise-trained iBAT- mice treated with 12,13-diHOME. As to conditions: iBAT- mice exercise trained 3 weeks, acutely treated with 12,13-diHOME. The format is in vivo. How it is done:
For iBAT-mice, mice were anesthetized using isofluorane. iBAT was surgically removed and the artery immediately cauterized. Sham mice underwent the same surgical procedure, but iBAT was not removed.
(§5) For measurements of respiratory exchange ratio (RER) and energy expenditure, mice were placed in metabolic chambers and injected intravenously with 1 μg/kg body weight 12,13-diHOME in 0.1% BSA PBS or vehicle and then monitored in the Comprehensive Laboratory Animals Monitoring System (CLAMS) at room temperature (22° C.) for 4 h.
Therefore, an analysis of sham and iBAT-mice was performed to determine whether increased 12,13-diHOME with training regulated fat utilization in vivo. Sham and iBAT-mice were sedentary or exercise trained for 3 weeks and subsequently, the RER was measured in metabolic cages. […] In contrast, there was no effect of exercise training on RER in the iBAT-mice.

The subject of series [5] is differentiated C2C12 cells. In words: 14C-palmitic acid uptake and oxidation in C2C12 cells. It counts as cell-based. The settings on record: 1.5 μM, 15 min, vs vehicle. How it is done: as §1, §2
Series [6] has as its system C2C12 cells. In words: Oxygen consumption rate (Seahorse XF24) in C2C12 cells. The format is cell-based. The settings on record: 1.5 μM, 15 min, 200 μM palmitate, vs vehicle. The procedure: as §3
To determine if 12,13-diHOME regulated mitochondrial function in muscle, differentiated C2C12 myotubes were incubated with 12,13-diHOME and then analyzed for mitochondrial respiration. 12,13-diHOME incubation increased basal oxygen consumption rate (OCR) and respiratory capacity in C2C12 cells (FIGS. 4A and 4B).

For series [7], the system named is 3T3-L1 cells. Put plainly: Oxygen consumption rate in 3T3-L1 cells. It counts as cell-based. The settings on record: any condition (data not shown).
Series [8] can be described thus: Respiratory exchange ratio and energy expenditure by CLAMS in acutely treated mice. The format is in vivo. As to conditions: wild-type mice, acute injection 1 μg/kg body weight i.v., CLAMS 4 h at room temperature, vs vehicle. How it is done: as §5
A major source of energy for the working skeletal muscles during exercise comes from the uptake and oxidation of fatty acids. To determine whether 12,13-diHOME increases fatty acid uptake and oxidation in skeletal muscle in vivo, a mouse model. ACTA1Cre+/−Rosa(stop)Luc+/−mice, was generated that constitutively expressed a bioluminescent reporter in skeletal muscle. Mice were injected intravenously with FFA-SS-Luc, which is a fatty acid conjugated to luciferin (Henkin et al., 2012; Liao et al., 2005), in the presence of 12,13-diHOME or a vehicle control. […] These surprising in vivo data provided a potential physiological function for the exercise-induced increases in 12,13-diHOME.

For series [9] the following is noted: Sisemore et al., 2001; cited from earlier work.
The subject of series [10] is isolated mouse extensor digitorum longus (EDL). Put plainly: 3H-2-deoxyglucose uptake in isolated EDL muscle. The settings on record: 300 ng/mL, 1 hour, vs vehicle. The procedure:
(§6) For experiments measuring in vivo bioluminescent fatty acid uptake in skeletal muscle, ACTA1cre^+/− mice (Stock no. 006139) were bred with Rosa(stop)Luc^+/+ (Stock no. 005125) (Jackson Laboratory). Experiments measuring skeletal muscle glucose uptake in isolated skeletal muscle glucose uptake were performed in 6 week old, female, CD-1 IGS mice (Charles River Laboratories).
(§7) Isolated skeletal muscle glucose uptake was measured as previously described (Hayashi et al., 1998). Briefly, EDL or soleus muscles were dissected from 6 wk old female CD-1 mice, mounted, and incubated in Krebs-Ringer bicarbonate buffer (KRB) pH 7.4 containing 2 mM pyruvate for 60 min. Both EDL and soleus were incubated with vehicle or 300 ng/mL of 12,13-diHOME. Following treatment, glucose transport activity was measured for an additional 10 min.
as §4

The test system of series [11] is isolated mouse soleus. Put plainly: 3H-2-deoxyglucose uptake in isolated soleus muscle. The settings on record: 300 ng/mL, 1 hour, vs vehicle. How it is done:
as §6, §7, §4

The subject of series [12] is skeletal muscle. Put plainly: In vivo bioluminescent fatty acid uptake in skeletal muscle (FFA-SS-Luc). As to conditions: ACTA1Cre+/- Rosa(stop)Luc+/- mice. How it is done:
as §6
For experiments measuring in vivo bioluminescent fatty acid uptake in skeletal muscle, ACTA1cre^+/− mice (Stock no. 006139) were bred with Rosa(stop)Luc^+/+ (Stock no. 005125)(Jackson Laboratory). Male offspring carrying the cre allele were injected retro-orbitally with 1 μg/kg body weight 12,13-diHOME in 0.1% BSA PBS or methyl acetate as a vehicle and all mice were co-injected with 2 μm FFA-SS-Luc (Intrace Medical). This dose is based on the circulating concentration of 12,13-diHOME in mice that are housed at room temperature, 3 ng/mL (10 nM). After an acute bout of exercise, 12,13-diHOME increased to 10-30 ng/mL (30-100 nM). This is considerably below the reported cytotoxic dose of 100 mg/kg body weight (Sisemore et al., 2001). Mice were anesthetized and imaged (IVIS Spectrum CT) using sequential 30 second exposures for 12 min.
A major source of energy for the working skeletal muscles during exercise comes from the uptake and oxidation of fatty acids. […]

Take `CCCCCC(O)C(O)C/C=C\CCCCCCCC(=O)O` (stereo not drawn) [12,13-diHOME, 12,13-dihydroxy-9Z-octadecenoic acid]: the “fatty acid oxidation (14C palmitic acid to CO2)” value in [1] was “did not increase”; in series [5], “significant increase”. The “fatty acid uptake (14C palmitic acid)” value in series [1] is “did not increase”; in series [5], “significant increase”. Further, the “expression of mitochondrial or fatty acid oxidation genes” value in series [2] (BAT), in series [2] (liver), in series [2] (pgWAT) and in series [2] (scWAT) was “no effect” in each case. In addition, the “expression of mitochondrial and fatty acid genes” value in series [2] (heart) was “increased expression of Nrf1 and Nrf2”; in [2] (tibialis anterior muscle), “increased expression of several genes involved in mitochondrial activity and biogenesis (citrate synthase, Nrf1, Nrf2), and fatty acid uptake (Cd36, Fatp4)”. Moreover, in series [3], the “glucose uptake (3H-2DG)” value is on record as “did not affect glucose uptake”. Also, the RER entry in series [4] is “significantly decreased”. Further, in [6], the ATP turnover entry was “did not affect”. Moreover, the “basal oxygen consumption rate (OCR)” value in series [6] is “increased”. The maximal uncoupled respiration entry in [6] is “did increase”. Besides, the respiratory capacity result in [6] is listed as “increased”. In addition, the OCR result in series [7] is reported as “did not increase OCR under any condition”. The energy expenditure entry in series [8] was “independent of any change in energy expenditure”. For the same molecule, in series [8], the “respiratory exchange ratio (RER)” value was “decreased”. In addition, the reported cytotoxic dose in series [9] is 100 mg/kg body weight. Also, the “rate of glucose uptake (3H-2DG)” value in series [10] and in series [11] was “no effect” each time. Further, the “fatty acid uptake in skeletal muscle (luciferase activity)” value in series [12] (1 μg/kg body weight injected with FFA-SS-Luc, vs vehicle) is recorded as “increased fatty acid uptake in skeletal muscle”. Besides, the “time fatty acid uptake remained significantly elevated above vehicle” value in [12] (1 μg/kg body weight, after injection) is listed as 10 min.
